From ChEMBL document CHEMBL4627246, “Pyroglutamide-Based P2X7 Receptor Antagonists Targeting Inflammatory Bowel Disease” (J Med Chem, 2020)

Experiments:
Format in all cases: cell-based
HOP-62 = test: Cytotoxicity against human HOP62 cells assessed as effect on cell growth at 10 uM incubated for 48 hrs by sulforhodamine B assay; conditions: hop-62, 48 h
HOP-92 = test: Cytotoxicity against human HOP92 cells assessed as effect on cell growth at 10 uM incubated for 48 hrs by sulforhodamine B assay; conditions: hop-92, 48 h
NCI-H226 = test: Cytotoxicity against human NCI-H226 cells assessed as effect on cell growth at 10 uM incubated for 48 hrs by sulforhodamine B assay; conditions: nci-h226, 48 h
NCI-H460 = test: Cytotoxicity against human NCI-H460 cells assessed as effect on cell growth at 10 uM incubated for 48 hrs by sulforhodamine B assay; conditions: nci-h460, 48 h
NCI-H522 = test: Cytotoxicity against human NCI-H522 cells assessed as effect on cell growth at 10 uM incubated for 48 hrs by sulforhodamine B assay; conditions: nci-h522, 48 h
COLO 205 = test: Cytotoxicity against human COLO205 cells assessed as effect on cell growth at 10 uM incubated for 48 hrs by sulforhodamine B assay; conditions: colo 205, 48 h
HCT-15 = test: Cytotoxicity against human HCT15 cells assessed as effect on cell growth at 10 uM incubated for 48 hrs by sulforhodamine B assay; conditions: hct-15, 48 h
SF-268 = test: Cytotoxicity against human SF268 cells assessed as effect on cell growth at 10 uM incubated for 48 hrs by sulforhodamine B assay; conditions: sf-268, 48 h
SF-295 = test: Cytotoxicity against human SF295 cells assessed as effect on cell growth at 10 uM incubated for 48 hrs by sulforhodamine B assay; conditions: sf-295, 48 h
SNB-75 = test: Cytotoxicity against human SNB75 cells assessed as effect on cell growth at 10 uM incubated for 48 hrs by sulforhodamine B assay; conditions: snb-75, 48 h
U-251 = test: Cytotoxicity against human U251 cells assessed as effect on cell growth at 10 uM incubated for 48 hrs by sulforhodamine B assay; conditions: u-251, 48 h
Malme-3M = test: Cytotoxicity against human MALME-3M cells assessed as effect on cell growth at 10 uM incubated for 48 hrs by sulforhodamine B assay
SK-MEL-5 = test: Cytotoxicity against human SK-MEL-5 cells assessed as effect on cell growth at 10 uM incubated for 48 hrs by sulforhodamine B assay; conditions: sk-mel-5, 48 h
IGROV-1 = test: Cytotoxicity against human IGROV1 cells assessed as effect on cell growth at 10 uM incubated for 48 hrs by sulforhodamine B assay; conditions: igrov-1, 48 h
OVCAR-4 = test: Cytotoxicity against human OVCAR4 cells assessed as effect on cell growth at 10 uM incubated for 48 hrs by sulforhodamine B assay; conditions: ovcar-4, 48 h
NCI/ADR-RES = test: Cytotoxicity against human NCI/ADR-RES cells assessed as effect on cell growth at 10 uM incubated for 48 hrs by sulforhodamine B assay
786-0 = test: Cytotoxicity against human 786-0 cells assessed as effect on cell growth at 10 uM incubated for 48 hrs by sulforhodamine B assay; conditions: 786-0, 48 h
SN12C = test: Cytotoxicity against human SN12C cells assessed as effect on cell growth at 10 uM incubated for 48 hrs by sulforhodamine B assay
Hs-578T = test: Cytotoxicity against human Hs 578T cells assessed as effect on cell growth at 10 uM incubated for 48 hrs by sulforhodamine B assay
BT-549 = test: Cytotoxicity against human BT549 cells assessed as effect on cell growth at 10 uM incubated for 48 hrs by sulforhodamine B assay; conditions: bt-549, 48 h

Measured: Activity

O=C(NCc1ccc(Cl)cc1Cl)[C@@H]1CCC(=O)N1c1cccs1
Non-Toxic: all assays above

O=C1N[C@H](C(=O)NCc2ccc(Cl)cc2Cl)C/C1=C/NCc1ccc(Cl)cc1Cl
Non-Toxic: all assays above

O=C(NCc1ccc(Cl)cc1Cl)[C@@H]1CCC(=O)N1Cc1ccc(Cl)cc1
Non-Toxic: all assays above

CN(C)/C=C1\C[C@H]2C(=O)N(/C(=C/N(C)C)c3ccncc3)C(N(C)C)N2C1=O (stereo not given in full)
Non-Toxic: all assays above

O=C(NCc1ccc(Cl)cc1Cl)[C@@H]1CCC(=O)N1C(c1ccccc1)c1ccccc1
Non-Toxic: all assays above

CN1C(=O)CC[C@H]1C(=O)NCc1cc(C(F)(F)F)ccc1Cl
Non-Toxic: all assays above
